{"source": "patent US10308689B2", "about": "“Dengue virus (DV) polypeptide sequences, T cell epitopes and methods and uses thereof” (LA JOLLA INSTITUTE FOR ALLERGY AND IMMUNOLOGY, priority 2010, dated 2019)", "test_system": "DENV2 (S221)", "test": "Peptide immunization and DENV2 challenge, DENV2 RNA by real-time RT-PCR", "type": "in vivo, mouse", "details": "immunization with the four H-2^b peptides together; day 4 after S221 infection", "procedure": "Mice were euthanized by isoflurane inhalation and blood was collected via cardiac puncture. Serum was separated from whole blood by centrifugation in serum separator tubes (Starsted) Small intestines were put into PBS, flushed, filleted, chopped into small pieces, and put into RNAlater (Qiagen). Other organs were immediately placed into RNAlater and all organs were subsequently homogenized for 3 min in 1 ml tissue lysis buffer (Qiagen Buffer RLT) using a Mini-Beadbeater-8 (BioSpec Products) or QiagenTissueLyser Immediately after homogenization, all tissues were centrifuged (5 min, 4° C., 16,000×g) to pellet debris, and RNA was isolated using the RNeasy Mini Kit (Qiagen). Serum RNA was isolated using the QIAamp Viral RNA Mini Kit (Qiagen). After elution, viral RNA was stored at −80° C. Quantitative RT-PCR was performed according to a published protocol (Houng et al., J Virol Methods 86:1-11 (2000)), except a MyiQ Single-Color Real-Time PCR Detection System (Bio-Rad) with One-Step qRT-PCR Kit (Quanta BioSciences) were used. […] After transcription, DNA was digested with DNase I, and RNA was purified using the RNeasy Mini Kit and quantified by spectrophotometry. To control for RNA quality and quantity when measuring DENV in tissues, the level of 18S rRNA was measured using 18S primers described previously (Lacher, et al., Cancer Res 66:1648 (2006)) in parallel real-time RT-PCR reactions. […]", "data": [{"substance": "NS2A8-15: DENV-2 derived H-2^b restricted dominant CD8+ T cell epitope (FSLGVLGM)", "values": [{"measurement": "lower serum DENV RNA levels, peptide-immunized vs mock-immunized mice", "result": 350, "unit": "fold"}]}]}
